Data from patent EP4650353A1 (Shanghai Institute of Materia Medica, Chinese Academy of …, priority 2023, dated 2024).

Molecular target: T1, human GLP-1 receptor (Homo sapiens, UniProt P43220)
T1 construct: HA (N); expressed in transfected cells
Experiment: GLP-1 receptor-mediated agonist activity: cAMP level in hGLP-1R/HEK293 cell line (HTRF)
Assay type: cell-based
Conditions: cAMP levels in hGLP-1R/HEK293 cell line; Table 1; read-out: determined EC50
Description: The hGLP-1R/HEK293 cells were digested, centrifuged and resuspended in culture medium (DMEM+0.2% BSA, m/v), and the cell density was adjusted to 2×10^5 cells/mL. IBMX (3-isobutyl-1-methylxanthine, final concentration of 0.5 mM) was added to the cell suspension and added to a 384-well plate at 5 µL (1×10^3 cells)/well. The compound was dissolved in DMSO to prepare a stock solution with a concentration of 10 mM. The experiment started with a concentration of 100 µM which was diluted 10 times in a series of 7 dilution points, with the 8th point being DMSO. 2 µL of the test compound of different concentrations was added to 98 µL of culture medium, shaken and mixed, 5 µL was taken and added to a 384-well plate (final concentration of the test compound was 0-100 nM, final concentration of DMSO was 1%, v/v), which was then incubated in the incubator (37°C, 5% CO2) in the dark for 30 min, then 10 µL of cAMP detection reagent (LANCE Ultra cAMP Detecion Kit, PerkinElmer, #TRF0264) was added, mixed well, and reacted at room temperature in the dark for 1 h. After the reaction was completed, the HTRF signal was read using the Envision 2104 multi-function microplate reader. All samples were tested in triplicate wells, and the ratio of the acceptor-donor excitation signal in each single well was calculated using the formula Ratio = Signal 665nM/Signal 620nM. The HTRF signal ratio and the corresponding compound concentration were analyzed and processed using GraphPad Prism 8 software, and the EC50 value of the compound was obtained by fitting the S-type dose-response curve and calculating.

T1 sequence (P43220 24-463): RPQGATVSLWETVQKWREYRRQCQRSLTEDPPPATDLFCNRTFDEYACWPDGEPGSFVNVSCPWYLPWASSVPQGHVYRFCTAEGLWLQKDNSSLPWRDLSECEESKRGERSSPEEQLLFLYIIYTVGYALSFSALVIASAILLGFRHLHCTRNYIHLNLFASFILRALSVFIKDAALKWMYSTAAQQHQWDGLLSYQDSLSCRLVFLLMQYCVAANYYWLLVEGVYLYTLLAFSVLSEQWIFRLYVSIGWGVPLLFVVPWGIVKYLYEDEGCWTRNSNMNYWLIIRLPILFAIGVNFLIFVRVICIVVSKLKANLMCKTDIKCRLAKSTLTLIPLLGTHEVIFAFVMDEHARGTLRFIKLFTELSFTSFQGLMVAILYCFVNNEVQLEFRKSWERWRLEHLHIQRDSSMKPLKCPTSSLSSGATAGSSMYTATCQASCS

| SMILES | EC50 [pM] |
| --- | --- |
| O=C(O)c1cc(OC2CC2)c2nc(CN3CCN(c4cccc(OCc5ccc(Cl)cc5F)n4)C=N3)n(C[C@@H]3CCO3)c2c1 [Compound 25, (S)-2-((4-(6-((4-chloro-2-fluorobenzyl)oxy)pyridin-2-yl)-5,6-dihydro-1,2,4-triazin-1(4H)-yl)methyl)-4-cyclopropyloxy-1-(oxetan-2-ylmethyl)-1H-benzo[d]imidazole-6-carboxylic acid] | 11.8 |
| COc1cc(C(=O)O)cc2c1nc(CN1CCC(c3cccnc3OCc3ccc(Cl)cc3F)CC1)n2C[C@@H]1CCO1 [Compound 31, (S)-2-((4-(2-((4-chloro-2-fluorobenzyl)oxy)pyridin-3-yl)piperidin-1-yl)methyl)-4-methoxy-1-(oxetan-2-ylmethyl)-1H-benzo[d]imidazole-6-carboxylic acid] | 37 |
| CCOc1cc(C(=O)O)cc2c1nc(CN1CCN(c3cccc4c3OC(C)(c3ccc(Cl)cc3F)O4)C=N1)n2C[C@@H]1CCO1 (stereo partly drawn) [Compound 68, 2-((4-(2-(4-chloro-2-fluorophenyl)-2-methylbenzo[d][1,3]dioxol-4-yl)-5,6-dihydro-1,2,4-triazin-1(4H)-yl)methyl)-4-ethoxy-1-(((S)-oxetan-2-yl)methyl)-1H-benzo[d]imidazole-6-carboxylic acid] | 6.4 |
| [2H]C([2H])([2H])Oc1cc(C(=O)O)cc2c1nc(CN1CCC(c3cccc4c3OC(C)(c3ccc(Cl)cc3F)O4)CC1)n2C[C@@H]1CCO1 (stereo partly drawn) [Compound 74, 2-((4-(2-(4-chloro-2-fluorophenyl)-2-methylbenzo[d][1,3]dioxol-4-yl)piperidin-1-yl)methyl)-4-(methoxy-d3)-1-(((S)-oxetan-2-yl)methyl)-1H-benzo[d]imidazole-6-carboxylic acid] | 6.5 |
| COc1cc(C(=O)O)cc2c1nc(CN1CCC(c3cccc(OCc4ccc(Cl)c5c4OCC5)n3)CC1)n2C[C@@H]1CCO1 [Compound 16, (S)-2-((4-(6-((4-chloro-2,3-dihydrobenzofuran-7-yl)methoxy)pyridin-2-yl)piperidin-1-yl)methyl)-4-methoxy-1-(oxetan-2-ylmethyl)-1H-benzo[d]imidazole-6-carboxylic acid] | 3.3 |
| CCOc1cc(C(=O)O)cc2c1nc(CN1CCC(c3cccc4c3OC(C)(c3ccc(C(F)(F)F)cc3F)O4)CC1)n2C[C@@H]1CCO1 (stereo partly drawn) [Compound 54, 4-ethoxy-2-((4-(2-(2-fluoro-4-(trifluoromethyl)phenyl)-2-methylbenzo[d][1,3]dioxol-4-yl)piperidin-1-yl)methyl)-1-(((S)-oxetan-2-yl)methyl)-1H-benzo[d]imidazole-6-carboxylic acid] | 7.7 |
| CCOc1cc(C(=O)O)cc2c1nc(CN1CCC(c3cccc4c3OC(C)(c3ccc(Cl)cn3)O4)CC1)n2C[C@@H]1CCO1 (stereo partly drawn) [Compound 39, 2-((4-(2-(5-chloropyridin-2-yl)-2-methylbenzo[d][1,3]dioxol-4-yl)piperidin-1-yl)methyl)-4-ethoxy-1-(((S)-oxetan-2-yl)methyl)-1H-benzo[d]imidazole-6-carboxylic acid] | 8 |
| CCOc1cc(C(=O)O)cc2c1nc(CN1CCC(c3cccc(OCc4ccc(Cl)cc4F)n3)CC1)n2C[C@@H]1CCO1 [Compound 29, (S)-2-((4-(6-((4-chloro-2-fluorobenzyl)oxy)pyridin-2-yl)piperidin-1-yl)methyl)-4-ethoxy-1-(oxetan-2-ylmethyl)-1H-benzo[d]imidazole-6-carboxylic acid] | 2.2 |
| [2H]C([2H])([2H])Oc1cc(C(=O)O)cc2c1nc(CN1CCN(c3cccc4c3OC(C)(c3ccc(Cl)cc3F)O4)C=N1)n2C[C@@H]1CCO1 (stereo partly drawn) [Compound 71, 2-((4-(2-(4-chloro-2-fluorophenyl)-2-methylbenzo[d][1,3]dioxol-4-yl)-5,6-dihydro-1,2,4-triazin-1(4H)-yl)methyl)-4-(methoxy-d3)-1-(((S)-oxetan-2-yl)methyl)-1H-benzo[d]imidazole-6-carboxylic acid] | 17.5 |
